Test results published in US12265087B2, “Olfactory receptor as microglia marker and use thereof” (DAEGU GYEONGBUK INSTITUTE OF SCIENCE AND TECHNOLOGY, priority 2019, dated 2025).

Legend:
[1] = molecular target: T1, Olfr110 (Mus musculus, UniProt A2RT31); assay: Luciferase assay in Hana3A cells transfected with Olfr110; assay type: cell-based; conditions: for binding to Olfr110: furan derivatives; for reactivity with Olfr110 (relative luciferase activity): Hana3A cells
T1 construct: Full-length odorant receptor genes from mouse and human genomic DNAs were amplified using appropriate primers; Lucy (N); Flag (N); Rho (N); expressed in transfected cells; host or cells: Hana3A cells, co-transfected with RTP1S, pCRELuc and pRL-SV40
T1 sequence (A2RT31 1-317): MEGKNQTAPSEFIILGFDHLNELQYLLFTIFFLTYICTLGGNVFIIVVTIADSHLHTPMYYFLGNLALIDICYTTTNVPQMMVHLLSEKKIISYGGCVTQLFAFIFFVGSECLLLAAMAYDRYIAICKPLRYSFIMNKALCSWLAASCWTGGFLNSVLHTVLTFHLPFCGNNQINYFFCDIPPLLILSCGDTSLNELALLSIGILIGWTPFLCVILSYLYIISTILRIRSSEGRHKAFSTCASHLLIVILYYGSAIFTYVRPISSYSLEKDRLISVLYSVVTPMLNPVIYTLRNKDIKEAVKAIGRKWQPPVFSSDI
Method: (§1) A Dual-Glo luciferase assay system (#E2940; Promega) was used for OR ligand screening. More specifically, Hana3A cells were seeded in white polystyrene 96-well plates (#353296; BD Biosciences) one day before transfection. pCRELuc (1 μg; #219076; Agilent Technologies), pRL-SV40 (1 μg; #E2231; Promega), RTP1S (1 μg), and OR (6 μg; or Mock) vectors were transfected for 24 hours in each plate. Analysis was performed using Lipofectamine 2000 (#11668-019; Thermo Fisher Scientific) according to the manufacturer's protocols. Transfected cells were stimulated at 37° C. for 4 hours with various concentrations of diluted odorants in a CD293 medium (#11913-019; Thermo Fisher Scientific). The activity of luciferase was normalized to that of Renilla luciferase. Luminescence was measured using a SpectraMax L microplate reader (Molecular Devices).

[2] = system: Olfr111; assay: Luciferase assay in Hana3A cells transfected with Olfr111; assay type: cell-based, mouse; conditions: for binding to Olfr1111: furan derivatives; for reactivity with Olfr111 (relative luciferase activity): Hana3A cells
Method: as §1

[3] = system: primary microglia; assay: ROS / superoxide generation in primary microglia; assay type: cell-based, mouse; conditions: for ROS generated with 2-PF co-treatment: Sup MOI 5 + 500 μM 2-PF, 2-EF 0, 100, 300, 500 μM; for ROS generation after 2-PF: inhibitor pretreatment, then 2-PF
Method: Superoxide concentrations were calculated by measuring the degree ofcytochrome c reduction using a VersaMax microplate reader (Babior et al., 1973). Microglia were cultured in a 96 well plate at a concentration of 1.0×10^5 cells/well, and the microglia were activated by a 10 μM ATP solution containing 2-PF and cytochrome c, or a solution in which Sup is mixed with cytochalasin B (5 μM; #C66762; Sigma Aldrich). The concentration of ROS was measured through a change in light absorption every minute for 25 minutes at 550 nm.
ROS levels were measured using 2′,7′-dichlorodihydrofluorescein diacetate (DCF-DA, #D6883; Sigma Aldrich) by a previously described method with minor modifications (Bae et al., 2001). More specifically, primary microglia were seeded in 24-well plates (5.0×10^5 cells/well) for 24 hours, and then treated with 10 μM DCF-DA at 37° C. for 30 minutes. One plate was treated with 2-PF, and the other one was not. The cells in each well were measured using a flow cytometer (FACS Accuri™ C6; BD Biosciences). MFI was measured as described above.

[4] = system: primary microglia; assay: Cytokine ELISA of primary microglia; assay type: cell-based, mouse; conditions: inhibitor pretreatment, then 2-PF
Method: The levels of expression of cytokines Tnf, i16 and I11b secreted from microglia were measured according to the manufacturer's protocols. More specifically, the levels were measured by ELISA 24 hours after treatment with 2-PF or a cell supernatant. The ELISA kit was purchased from BD Biosciences (#DY410 for Tnf; #DY406 for I16; #DY401 for I11b).

[5] = system: primary microglia; assay: Western blotting of phosphorylated signaling proteins in primary microglia; assay type: cell-based, mouse; conditions: inhibitor pre-cultivation, then 2-PF
Method: Cells and tissue were prepared using the T-PER® reagent (#78510; Thermo Fisher Scientific) containing protease inhibitors (#04-693-116-001; Roche Molecular Diagnostics) and DMSF (Sigma-Aldrich), and then lysed using a MagNA lyser (Roche Molecular Diagnostics). A total protein extract was quantified by the Bradford assay. The samples were dissolved in 7.5% SDS-PAGE or 4-20% gradient mini-PROTEIN TGX Precast Gels (#456-1064; Bio-Rad Laboratories), and then blotted on nitrocellulose membranes (#10600002; GE Healthcare). Afterward, the membranes were blocked for 1 hour in 5% non-fat dry milk and TBST, 0.1% TWEEN® 20 (#P9416; Sigma-Aldrich), and Tris-buffered saline, and then incubated with primary antibodies at 4° C. overnight. The antibodies were as follows: Olfr110 (36 kDa; 1:1,000; #ab177327; Abcam), anti-rhodopsin (39 kDa; 1:1,000; #MABN15; Millipore), CREB (43 kDa; 1:1,000; #9197; Cell Signaling Technology), phospho-CREB (43 kDa; 1:1,000; #9198; Cell Signaling Technology), ERK (44 kDa; 1:1,000; #sc094; Santa Cruz), phospho-ERK (42, 44 kDa; 1:1,000; #sc-7383; Santa Cruz), phospho-Akt (60 kDa; 1:500; sc-293125; Santa Cruz), phospho-JNK (46, 54 kDa; 1:500; sc-6254; Santa Cruz), phosphor-p38 (38 kDa; 1:1,000; sc-7973; Santa Cruz), and beta-Actin (45 kDa; 1:10,000; #4967; Cell Signaling Technology). In addition, as isotype-matched horseradish peroxidase-conjugated secondary antibodies, anti-rabbit IgG (#711-035-152; Jackson ImmunoResearch) diluted 1:100,000, and anti-mouse IgG (#715-035-150; Jackson ImmunoResearch) diluted 1:40,000 in TBST were used at room temperature for 2 hours. Immunoreactive protein bands were obtained using SuperSignal™ West Pico Chemiluminescent Substrate (#34080; Thermo Fisher Scientific).

[6] = system: Olfr920, Olfr1417 and Olfr99; conditions: also react with MOCK

With Cc1ccoc1C [2,3-dimethylfuran] the “binding to Olfr110” value [1] was “do not bind” and the “binding to Olfr1111” value [2] was “do not bind”.
In the case of CCc1ccco1 [2-EF, 2-ethylfuran], the “mode of action at Olfr110” value [1] is reported as “competitive inhibitor (antagonist)”, the “2-PF activity on Olfr110 with co-treatment” value ([1]; 2-PF fixed at 300 μM, 2-EF 1 μM to 10 mM) is reported as 2-PF activity decreases and the Kd ([1]; 2-PF fixed at 300 μM, 2-EF 1 μM to 10 mM, read-out: Kd (competitive activity against 2-PF)) is reported as 120 µM. For the same molecule, the “binding to Olfr110” value [1] was “do not bind”, the “amount of ROS generated by 100 MOI Sup” value ([3]; 2-EF pretreated at 0, 100, 300, 500 μM) was “diminished as the 2-EF level increases” and the “ROS generated with 2-PF co-treatment” value [3] was “the higher the concentration of 2-EF added, the lower the concentration of the generated ROS”. The “ROS generated with 2-PF co-treatment” value ([3]; listed as 2-ethylfuran) was “reduced” and the “binding to Olfr1111” value [2] was “do not bind”.
In the case of CCCCc1ccco1 [2-butylfuran], the “reactivity with Olfr110 (relative luciferase activity)” value [1] is reported as “showed reactivity” and the “reactivity with Olfr111 (relative luciferase activity)” value [2] is reported as “showed reactivity”.
For CCCCCCCc1ccco1 [2-heptylfuran], the “binding to Olfr110” value [1] was “do not bind” and the “binding to Olfr1111” value [2] was “do not bind”.
For CCCCCCc1ccco1 [2-hexylfuran], the “reactivity with Olfr110 (relative luciferase activity)” value [1] was “showed reactivity”, the “binding to Olfr110” value [1] was “do not bind” and the “reactivity with Olfr111 (relative luciferase activity)” value [2] was “showed reactivity”. For the same molecule, the “binding to Olfr1111” value [2] was “do not bind”.
For Cc1ccco1 [2-methylfuran], the “binding to Olfr110” value [1] was “do not bind” and the “binding to Olfr1111” value [2] was “do not bind”.
For CCCc1ccco1 [2-propylfuran], the “reactivity with Olfr110 (relative luciferase activity)” value [1] was “showed reactivity” and the “reactivity with Olfr111 (relative luciferase activity)” value [2] was “showed reactivity”.
For CC(C)(C)c1ccco1 [2-t-butylfuran], the “reactivity with Olfr110 (relative luciferase activity)” value [1] was “showed reactivity” and the “reactivity with Olfr111 (relative luciferase activity)” value [2] was “showed reactivity”.
In the case of O=S(=O)(NCCNC/C=C/c1ccc(Br)cc1)c1cccc2cnccc12 [H-89], the “Tnf and Il6 cytokine levels after 2-PF” value [4] is reported as “great decrease”.
For Nc1ncnc2c1ncn2C1CCCO1 (stereo not drawn) [SQ22536], the “Tnf and Il6 cytokine levels after 2-PF” value [4] was “great decrease” and the “CREB and ERK phosphorylation” value [5] was “greatly decreased”.
For COc1ccc2c(c1)CC[C@@H]1[C@@H]2CC[C@]2(C)[C@@H](NCCCCCCN3C(=O)C=CC3=O)CC[C@@H]12 [U73122, reference compound], the “Tnf and Il6 cytokine levels after 2-PF” value [4] was “relatively less decrease” and the “ROS generation after 2-PF” value [3] was “completely inhibited”.
In the case of CCO [ethanol], the “reactivity of the other three receptors” value [6] is reported as “non-specific reaction”.
For O=C1OC2(c3ccccc31)c1ccc(O)c(O)c1Oc1c2ccc(O)c1O [gallein, reference compound], the “ROS generation after 2-PF” value [3] was “similarly inhibited”.
In the case of COc1cccc(-c2cc(=O)c3ccccc3o2)c1N [pd98059], the “Tnf and Il6 cytokine levels after 2-PF” value [4] is reported as “relatively less decrease” and the “CREB and ERK phosphorylation” value [5] is reported as “greatly decreased”.
